According to patent US20100210649A1, “PYRIDAZINONES AND FURAN-CONTAINING COMPOUNDS” (Sloan-Kettering Institute for Cancer Research, priority 2006, published 2010):
Read-outs that look alike come from different tables or passages of the source.

What was measured:
H358 = test: Non Small Cell Lung Cancer proliferation assay (Alamar Blue reduction), H358; assay type: cell-based; conditions: Homo sapiens
In short: (§1)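 Dose-response run: cells were counted, dispensed at 250 cells/well onto compound, incubated 48 hours at 37° C, then incubated with Alamar Blue for an additional 48 hours before fluorescence measurement. All wells held 1% DMSO final.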

H1118 = test: Non Small Cell Lung Cancer proliferation assay (Alamar Blue reduction), H1118; assay type: cell-based
H2030 = test: Non Small Cell Lung Cancer proliferation assay (Alamar Blue reduction), H2030; assay type: cell-based, human; conditions: Homo sapiens
In short: as §1

H1975 = test: Non Small Cell Lung Cancer proliferation assay (Alamar Blue reduction), H1975; assay type: cell-based, human; conditions: Homo sapiens
In short: as §1

H2444 = test: Dose response study (Alamar Blue), H2444; assay type: cell-based; conditions: Homo sapiens, read-out: IC50 H2444
Description: Dose response studies against 34 compounds from the pyridazinone and phenylfuran-carboxamide class were conducted. […] In addition, Tarceva was included in these dose response studies.
The dose response studies were done with the following standard procedure. First, the cells were counted and dispensed at 250 cells/well into 384-well microplates with compound. The cells were incubated for 48 hours at 37 C to complete treatment, and then alamar blue was added for an additional 48 hours. Finally, alamar blue reduction was measured and the data was loaded into ORIS, our data screening acquisition platform.

in vitro = conditions: human
[1] = NCI-H358, H358, 12 point doubling dilution 10 uM to 5 nM, 48 h treatment, alamar blue additional 48 h, read-out: IC50 H358
[2] = NCI-H358, read-out: Dose Response (uM) H358
[3] = Homo sapiens; H1118; 12 point doubling dilution 10 uM to 5 nM; 48 h treatment, alamar blue additional 48 h; read-out: IC50 H1118
[4] = NCI-H2030, 48 h, H2030, 12 point doubling dilution 10 uM to 5 nM, 48 h treatment, alamar blue additional 48 h, read-out: IC50 H2030
[5] = NCI-H2030, dose response 10 M to 5 nM, IC50, read-out: Dose Response (uM) H2030
[6] = NCI-H1975, 48 h, H1975, 12 point doubling dilution 10 uM to 5 nM, 48 h treatment, alamar blue additional 48 h, read-out: IC50 H1975
[7] = NCI-H1975, dose response 10 M to 5 nM, IC50, read-out: Dose Response (uM) H1975
[8] = NCI-H2444, H2444, 12 point doubling dilution 10 uM to 5 nM, 48 h treatment, alamar blue additional 48 h
[9] = Homo sapiens; read-out: Dose Response (uM) H1118

Compound	IC50 (H358; [1]) [µM]	IC50 (H358; [2]) [µM]	IC50 (H1118; [3]) [µM]	IC50 (H2030; [4]) [µM]	IC50 (H2030; [5]) [µM]	IC50 (H1975; [6]) [µM]	IC50 (H1975; [7]) [µM]	IC50 (H2444; [8]) [nM]	IC50 at 72 h (in vitro; CytoTox (uM) NHBE) [µM]	IC50 at 72 h (in vitro; CytoTox (uM) WI-38) [µM]	IC50 (H358; NCI-H358, 48 h, H358, 12 point doubling dilution 10 uM to 5 nM, 48 h treatment, alamar blue additional 48 h, read-out: IC50 H358) [µM]	IC50 (H358; NCI-H358, dose response 10 M to 5 nM, IC50, read-out: Dose Response (uM) H358) [µM]	IC50 (H1118; Homo sapiens, 48 h, read-out: IC50 H1118) [µM]	IC50 (H1118; Homo sapiens, read-out: Dose Response (uM) H1118) [µM]	IC50 (H2444; NCI-H2444, 48 h) [nM]	IC50 (H1118; [9]) [µM]
Cc1cc(-n2ncc(Cl)c(Cl)c2=O)ccc1Br [compound 267064]	7.65	0.47	> 10	7.8	0.88	7.58	0.71	6410	4.04	> 10						
Cc1cccc(-n2ncc(I)c(I)c2=O)c1 [compound 267085]	1.33	0.3	1.03	0.81	0.99	0.8	0.5	530	2.88	5.51						
O=c1c(Cl)c(Cl)cnn1-c1ccccc1 [compound 257014]				0.41	0.55	0.36	0.29		3.29	6.93	0.68	0.31	0.45	0.27	340	
Cc1cc(-n2ncc(Cl)c(Cl)c2=O)ccc1Cl [compound 267065]	> 10	1.24	> 10	> 10	> 10	> 10	1.89	6370	> 10	> 10						
O=c1c(Cl)c(Cl)cnn1-c1ccccn1 [compound 267090]	0.21	0.06	0.15	0.17	0.41	0.16	0.2	220	1.43	1.19						
Cc1ccc(-n2ncc(Cl)c(Cl)c2=O)cc1Cl [compound 267070]	> 10	0.97	> 10	> 10	5.18	> 10	0.91	> 10000	> 10	> 10						
Cc1nc2cc(-n3ncc(Cl)c(Cl)c3=O)ccc2s1 [compound 267067]	> 10	1.38	> 10	9.19	3.04	> 10	0.45	6920	> 10	> 10						
COCCOc1cccc(-n2ncc(Br)c(Br)c2=O)c1 [compound 267084]	0.27	0.13	0.23	0.22	0.61	0.21	0.23	230	2.56	2.33						
O=c1c(Br)c(Br)cnn1-c1cccc(C(F)(F)F)c1 [compound 267072]	0.85	0.15	1.21	0.85		0.93	0.2	1050	1.43	2.17						
Cc1ccc(-n2ncc(Cl)c(Cl)c2=O)cc1C [compound 257019]	0.79	0.24	0.94	0.8	0.53	0.89	0.29	820	3.24	7.02						0.29
Cc1cccc(-n2ncc(Cl)c(Cl)c2=O)c1C [compound 257018]	1.13	0.55	0.54	0.9	0.89	0.54	0.35	850	3.89	7.35						0.44
O=c1c(Cl)c(Cl)cnn1-c1ccc2c(c1)OCCO2 [compound 267068]	0.78	0.43	0.48	0.47	1.23	0.37	0.25	410	1.56	3.96						
